# Measurements: patent US20150307841A1, “Composition for Promoting Differentiation and Proliferation of Neural Stem Cell and Neural Precursor Cell” (priority 2014, published 2015)
# What was measured:
# [1] = tested on: memory-deficient model rats; test: Morris water maze test in memory-deficient model rats; format: in vivo, rat; details: Experimental Example 2
# Text: (§1) Ibotenic acid is a neurotoxin present in mushrooms and is known to cause powerful damage to neurons when directly injected into the brain of mice or rats. In particular, because senile plaques and neuronal cell death appear in the entorhinal cortex and hippocampus in early Alzheimer's disease patients (Ueki A et al. J Neurol Sci, 1994), memory-deficient model rats were generated by injecting ibotenic acid (IBO) into the entorhinal cortex. The surgical protocol followed Heo H et al.'s method (J Ethnopharmacol, 2009) with some modifications. In the model animals, the injection of ibotenic acid induces cell death not only in the entorhinal cortex but also in the CA and DG regions of the hippocampus and impairs hippocampus-related learning and memory abilities.
# The 6-week-old rats were anesthetized with equithesin (350 mM pentobarbital sodium, 250 mM chloral hydrate, 85 mM MgSO4 and 40% propylene glycol in 10% ethanol, 2 mL/kg). To induce cell death in the dentate gyrus and hippocampus in addition to the entorhinal cortex, ibotenic acid (1.5 μL per animal, 1 mg/mL) was injected into the entorhinal cortex as follows. The rat was placed in a stereotaxic device (Stoelting Co., Wood Dale, Ill., USA) with the incisor bar 3.4 mm below the interaural line. The needle was positioned 10° right to the midsaggital plane. […]
# For each trial, the rat was allowed to swim for a maximum of 60 seconds to find the platform and to rest for 1 minute on the platform upon success. […] The swimming time and length of the trial were recorded and monitored using a video camera. […] The captured video images were analyzed by a video tracking system (EthoVision Water Maze program, Noldus Information Technology, Wageningen, the Netherlands). The analyzed information included the swimming time in the target quadrant and the number of virtual platform crossings to find the removed platform. […]
# [2] = tested on: memory-deficient model rats; test: Passive avoidance test in memory-deficient model rats; format: in vivo, rat
# Text: as §1
# The 6-week-old rats were anesthetized with equithesin (350 mM pentobarbital sodium, 250 mM chloral hydrate, 85 mM MgSO4 and 40% propylene glycol in 10% ethanol, 2 mL/kg). […]
# The passive avoidance was carried out as described in Heo H et al. (J Ethnopharmacol, 2009), with the same number of animals per group as the Y-maze test. […] Exactly 24 hours after the acquisition trial, the rats were placed in the lighted chamber again and the latency time to enter the dark chamber was measured for 720 seconds (retention trial). […]
compound,measurement,setting,value
C[C@@H]1O[C@@H](O[C@H]2[C@H](O[C@H]3[C@H](O[C@H]4CC[C@@]5(C)[C@@H](CC[C@]6(C)[C@@H]5CC=C5[C@@H]7CC(C)(C)C[C@@H](O)[C@]7(C)CC[C@]56C)[C@@]4(C)CO)O[C@H](C(=O)O)[C@@H](O)[C@@H]3O)O[C@H](CO)[C@H](O)[C@@H]2O)[C@H](O)[C@H](O)[C@H]1O [soyasaponin I],Morris water maze number of crossings across the target probe,[1]; probe trial session,recovery to almost those of the normal group
same,Morris water maze swimming time in the target quadrant,[1]; probe trial session,recovery to almost those of the normal group
same,Morris water maze escape latency time compared to the ibotenic acid-administered group,"[1]; training trial, third and fourth days",decreased
same,"Passive avoidance latency time, relative to that of the normal group","[2]; 10 mg/kg oral, tests 2 weeks after administration (Experimental Example 2)",89.65%
same,Passive avoidance latency time,"[2]; Experimental Example 1, retention trial 24 hours after shock",improvement in latency time
